Results published in patent US5843399A, “DTPA monoamides for MRI” (Schering Aktiengesellschaft, priority 1990, dated 1998).

Key:
[1] = tested on: human serum albumin; assay: Association with human serum albumin in aqueous solution; format: binding
[2] = tested on: liver; details: p.o., 0.5 mmol of Gd/kg
Procedure: In another animal (rat, strain Lew/mol, female, 200 g), the same contrast medium was administered orally with a p.o. sample in a dose of 0.5 mmol of Gd/kg (concentration of the solution 0.033 mmol of Gd/ml, in 0.9% NaCl). The animal was anesthetized 30 minutes after the administration and examined under the same conditions as described in the first case.

[3] = tested on: liver / Brown-Pearce tumor; assay: In vivo NMR diagnosis, intravenous, liver with Brown-Pearce tumor; parameters: species or system rat; details: i.v., 0.1 mmol of Gd/kg, 60 minutes after administration
Procedure: (§1) A cell suspension of the Brown-Pearce tumor was injected in the liver in a test animal (rat, strain lew/mol, female, 155 g) two weeks before the test. In the method used, about 2 weeks were required until the tumor had reached the size of 0.5-1 cm^3 desired for the test.
(§2) For the test, the animal was anesthetized (Rompun+Ketavet) and then a catheter was placed in the caudal vein for the administration of the contrast medium.
The imaging took place in an MRI experimental device of the General Electric company (field strength 2 teslas). The first image was made without contrast media with a T1 -weighted spin echo sequence (TR=400 msec, TE=20 msec, layer thickness 3 mm). […] 2 was taken 60 minutes after the administration of the contrast medium under conditions which were otherwise the same as image no.

[4] = tested on: stomach; details: i.v., 0.1 mmol of Gd/kg, 60 minutes after administration (image no. 2)
Procedure: as §1, §2
The imaging took place in an MRI experimental device of the General Electric company (field strength 2 teslas). The first image was made without contrast media with a T1 -weighted spin echo sequence (TR=400 msec, TE=20 msec, layer thickness 3 mm). […] Then, the administration of the contrast medium [gadolinium complex of 3,6-bis(carboxymethyl)-9-(10-carboxydecylcarbamoylmethyl)-3,6,9-triazaundecanedioic acid, Example 1b)] took place through the vein catheter with a dose of 0.1 mmol of Gd/kg (concentration of the solution of 0.05 mmol/ml in 0.9% NaCl, i.e. a clinically usual dose, e.g., in the case of the commercial preparation Magnevist®). […] 2 was taken 60 minutes after the administration of the contrast medium under conditions which were otherwise the same as image no.

SMILES	association with human serum albumin [1]	signal in the liver, 45 minutes ([2]; 45 minutes after administration (image 3))	enhancement in the liver, 180 minutes ([2]; 180 minutes after administration (image 4))	concentration of the contrast medium in liver and tumor [3]	appearance of the liver parenchyma in MRI image ([3]; 2 teslas, T1-weighted spin echo)	appearance of the tumor in MRI image ([3]; Brown-Pearce tumor in liver)	enhancement of the stomach [4]
CCCCCCC(CCCCCCCCCCC(=O)O)NC(=O)CN(CCN(CCN(CC(=O)O)CC(=O)O)CC(=O)O)CC(=O)O.[Gd] (stereo not shown) [Example 4b, Gadolinium complex of 3,6-bis(carboxymethyl)-9-(11-carboxy-1-n-hexyl-undecylcarbamoylmethyl)-3,6,9-triazaundecanedioic acid]	forms associates in aqueous solution with human serum albumin						
O=C(O)CCCCCCCCCCNC(=O)CN(CCN(CCN(CC(=O)O)CC(=O)O)CC(=O)O)CC(=O)O.[Gd] [Example 1b, Gadolinium complex of 3,6-bis(carboxymethyl)-9-(10-carboxydecylcarbamoylmethyl)-3,6,9-triazaundecanedioic acid]		a slight increase in the signal in the liver	A marked enhancement in the liver	concentrated in the liver to a great extent, but, not in the tumor	very bright	considerably darker in comparison with the surrounding liver tissue	very strong enhancement of the stomach
